In publication PMC6165432 (International Journal of Molecular Sciences, 2018):
Where two headings read alike, the source gives them in different places.

Legend:
[1] = target: T1, mouse AhR (mAhR) (Mus musculus, UniProt P30561); assay: AhR-responsive luciferase reporter gene assay in stably transfected mouse H1L6.1c3 hepatoma cells; assay type: cell-based
T1 sequence (P30561 10-805): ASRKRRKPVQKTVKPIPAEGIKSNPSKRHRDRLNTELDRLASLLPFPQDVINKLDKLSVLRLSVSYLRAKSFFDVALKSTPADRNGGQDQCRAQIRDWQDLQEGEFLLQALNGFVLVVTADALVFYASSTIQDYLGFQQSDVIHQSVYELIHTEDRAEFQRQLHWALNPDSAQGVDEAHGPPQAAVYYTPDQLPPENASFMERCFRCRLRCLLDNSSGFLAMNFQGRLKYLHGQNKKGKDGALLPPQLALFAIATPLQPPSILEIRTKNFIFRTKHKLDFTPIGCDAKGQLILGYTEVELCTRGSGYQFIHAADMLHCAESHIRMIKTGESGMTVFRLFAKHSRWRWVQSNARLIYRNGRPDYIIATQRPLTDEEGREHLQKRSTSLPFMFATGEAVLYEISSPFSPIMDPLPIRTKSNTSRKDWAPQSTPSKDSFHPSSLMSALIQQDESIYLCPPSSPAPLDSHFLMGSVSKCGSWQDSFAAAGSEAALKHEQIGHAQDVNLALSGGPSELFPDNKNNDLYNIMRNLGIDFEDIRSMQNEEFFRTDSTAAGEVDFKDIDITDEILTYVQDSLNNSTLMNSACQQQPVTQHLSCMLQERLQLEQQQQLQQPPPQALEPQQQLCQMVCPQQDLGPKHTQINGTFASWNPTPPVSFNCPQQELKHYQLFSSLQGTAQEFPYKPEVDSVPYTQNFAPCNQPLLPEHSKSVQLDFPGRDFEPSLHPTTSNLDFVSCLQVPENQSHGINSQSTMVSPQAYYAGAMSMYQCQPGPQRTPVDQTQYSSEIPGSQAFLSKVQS
Protocol: (§2) AhR-dependent gene transcription was determined in (A) human HG2L6.1c.1 and (B) mouse H1L6.1c.3 hepatoma cell lines that contain a stably transfected AhR-responsive luciferase reporter gene. […] Luciferase activity (Relative Light Units (RLUs)) was normalized to the maximal induction observed with TCDD in each cell line. Values represent the mean ± SD of nine independent analyses.
(§3) Recombinant mouse (H1L6.1c3) and human (HG2L6.1c1) hepatoma cells containing a stably integrated AhR-responsive luciferase reporter gene plasmid (pGudLuc6.1) were plated (750,000 cells/well) in 96-well plates and incubated at 37 °C for 24 h prior to chemical treatment. Cells were incubated with DMSO (1% (v/v)) or the indicated concentration of test chemical in DMSO for 4 h, followed by visual inspection of the cells for toxicity, washing of the cells with phosphate-buffered saline (PBS), addition of 50 µL of passive lysis buffer (Promega) and lysis of cells for 20 min at room temperature with shaking [50]. Luciferase activity in each well was measured (integrating luminescence over 10 s with a 10 s delay) in an Orion microplate luminometer (Berthold Detection Systems, Bad Wildbad, Germany) following automatic injection of Promega stabilized luciferase reagent.
(§4) Analysis of statistical significance of differences between experimental values was conducted using Two-Way ANOVA and EC50s and IC50s were calculated using nonlinear regression (three parameter) analysis in GraphPad Prism v.7 (La Jolla, CA, USA).

[2] = target: T2, human AhR (hAhR) (Homo sapiens, UniProt P35869); assay: AhR-responsive luciferase reporter gene assay in stably transfected human HG2L6.1c1 hepatoma cells; conditions: for maximal level of reporter gene induction: relative to TCDD
T2 sequence (P35869 11-848): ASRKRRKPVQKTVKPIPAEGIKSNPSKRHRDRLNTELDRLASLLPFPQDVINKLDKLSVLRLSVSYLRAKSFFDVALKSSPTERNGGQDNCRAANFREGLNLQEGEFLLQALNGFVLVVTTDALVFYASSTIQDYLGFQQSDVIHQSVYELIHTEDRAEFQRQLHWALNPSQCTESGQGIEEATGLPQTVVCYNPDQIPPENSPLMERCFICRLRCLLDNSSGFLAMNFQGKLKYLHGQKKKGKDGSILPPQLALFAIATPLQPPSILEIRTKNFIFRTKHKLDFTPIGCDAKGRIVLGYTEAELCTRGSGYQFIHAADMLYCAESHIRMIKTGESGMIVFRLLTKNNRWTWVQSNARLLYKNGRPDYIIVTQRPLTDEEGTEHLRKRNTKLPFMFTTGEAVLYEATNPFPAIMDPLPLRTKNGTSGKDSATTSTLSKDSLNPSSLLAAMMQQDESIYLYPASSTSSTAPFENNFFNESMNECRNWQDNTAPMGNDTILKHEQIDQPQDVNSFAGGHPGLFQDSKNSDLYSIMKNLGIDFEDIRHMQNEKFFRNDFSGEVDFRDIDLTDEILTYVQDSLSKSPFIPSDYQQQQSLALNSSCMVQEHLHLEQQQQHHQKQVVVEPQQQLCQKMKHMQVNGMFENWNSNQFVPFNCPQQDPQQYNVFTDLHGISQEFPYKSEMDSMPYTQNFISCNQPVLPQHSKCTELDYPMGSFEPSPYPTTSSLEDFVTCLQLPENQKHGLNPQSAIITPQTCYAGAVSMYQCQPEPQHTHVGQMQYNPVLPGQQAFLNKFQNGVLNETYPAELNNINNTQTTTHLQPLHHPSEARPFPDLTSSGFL
Protocol: as §2, §3, §4

[3] = system: T3, mutant A349T mAhR; assay: Transient transfection luciferase reporter assay in COS-1 cells, A349T mAhR; assay type: cell-based, mouse; conditions: COS-1 cells cotransfected with A349T mAhR; TCDD 10 nM, IR 1 µM, 18–20 h
T3 construct: contains a full-length mAhR cDNA in which the mouse PASB LBD was replaced; expressed in transfected cells; host or cells: COS-1
Protocol: (§5) Cells were lysed, and lysates were analyzed for firefly luciferase activity. […] Luciferase activity (relative light units; RLU) was measured and corrected for background (DMSO) and normalized to mAhR TCDD levels. Values represent the mean ± SD of nine individual replicate analyses.
(§6) COS-1 cells were plated at a density of 75,000 cells/well and allowed to attach overnight in a 24-well plate. Cells were transiently transfected (per well) with the following amounts per well: 2 µL Lipofectamine 2000 (Invitrogen, Carlsbad, CA, USA), 20 ng wild-type (mβAhR/pcDNA3) or mutant AhR expression plasmids (in pcDNA3.1), 20 ng of mβARNT/pcDNA3 or pcDNA3.1(+) and 200 ng pGudLuc6.1 [17].

[4] = target: T4, hAhR (Homo sapiens, UniProt P35869); conditions: COS-1 cells cotransfected with hAhR; TCDD 10 nM, IR 1 µM, 18–20 h
Protocol: as §5, §6

[5] = target: mAhR-hAhRLBD (Mus musculus; Homo sapiens, UniProt P30561+P35869); conditions: COS-1 cells cotransfected with mAhR-hAhRLBD; TCDD 10 nM, IR 1 µM, 18–20 h
Protocol: as §5, §6

[6] = system: AhR; conditions: human hepatoma cells ref 23; cited from earlier work
[7] = system: AhR; conditions: mouse hepatoma cells ref 23; cited from earlier work
[8] = target: T5, mutant mAhR Q299R (Mus musculus, UniProt P30561, M324I/Q299R); assay: AhR DNA binding (gel retardation) assay, Q299R mAhR; assay type: biochemical
T5 construct: made in house; host or cells: in vitro transcription/translation, rabbit reticulocyte lysate
Protocol: (§7) An aliquot of each incubation was mixed with [^32P]-labeled double-stranded oligonucleotide containing the AhR-ARNT DRE3 DNA binding site (a dioxin responsive element from the upstream region of the murine Cyp1a1 gene [9] and protein-DNA complexes resolved by gel retardation analysis as previously described [48, 49]. Gels were visualized using a FLA9000 Fujifilm Imager and protein-DNA complexes quantitated with Fujifilm MultiGauge software (FujiFilm Corporation, Valhalla, NY, USA).
as §4

[9] = target: T6, mutant mAhR L300I (Mus musculus, UniProt P30561, L300I/M324I); assay: AhR DNA binding (gel retardation) assay, L300I mAhR; assay type: biochemical
T6 construct: made in house; host or cells: in vitro transcription/translation, rabbit reticulocyte lysate
T6 sequence (P30561 10-805 L300I/M324I limits assumed): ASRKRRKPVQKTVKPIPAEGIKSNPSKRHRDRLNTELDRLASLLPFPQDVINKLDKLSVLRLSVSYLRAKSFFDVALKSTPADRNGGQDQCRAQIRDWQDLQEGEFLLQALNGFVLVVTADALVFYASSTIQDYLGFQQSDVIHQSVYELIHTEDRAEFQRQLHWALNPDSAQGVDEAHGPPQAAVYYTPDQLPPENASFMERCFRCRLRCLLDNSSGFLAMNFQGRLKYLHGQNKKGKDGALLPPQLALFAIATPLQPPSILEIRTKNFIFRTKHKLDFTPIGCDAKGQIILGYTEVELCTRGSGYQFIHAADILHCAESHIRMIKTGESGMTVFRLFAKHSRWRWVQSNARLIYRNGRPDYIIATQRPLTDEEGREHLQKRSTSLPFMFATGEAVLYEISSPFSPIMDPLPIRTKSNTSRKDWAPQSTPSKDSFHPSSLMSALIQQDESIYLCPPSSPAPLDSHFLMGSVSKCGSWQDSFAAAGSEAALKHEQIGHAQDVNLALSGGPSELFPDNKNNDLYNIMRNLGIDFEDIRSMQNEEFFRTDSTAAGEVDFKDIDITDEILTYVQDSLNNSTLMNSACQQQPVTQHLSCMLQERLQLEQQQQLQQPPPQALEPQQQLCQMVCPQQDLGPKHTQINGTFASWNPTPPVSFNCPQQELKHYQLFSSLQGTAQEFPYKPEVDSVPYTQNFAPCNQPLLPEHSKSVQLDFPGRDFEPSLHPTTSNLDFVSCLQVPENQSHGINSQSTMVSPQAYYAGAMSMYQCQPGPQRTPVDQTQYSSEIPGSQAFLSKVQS
T6 sequence (P53762 whole entry partner): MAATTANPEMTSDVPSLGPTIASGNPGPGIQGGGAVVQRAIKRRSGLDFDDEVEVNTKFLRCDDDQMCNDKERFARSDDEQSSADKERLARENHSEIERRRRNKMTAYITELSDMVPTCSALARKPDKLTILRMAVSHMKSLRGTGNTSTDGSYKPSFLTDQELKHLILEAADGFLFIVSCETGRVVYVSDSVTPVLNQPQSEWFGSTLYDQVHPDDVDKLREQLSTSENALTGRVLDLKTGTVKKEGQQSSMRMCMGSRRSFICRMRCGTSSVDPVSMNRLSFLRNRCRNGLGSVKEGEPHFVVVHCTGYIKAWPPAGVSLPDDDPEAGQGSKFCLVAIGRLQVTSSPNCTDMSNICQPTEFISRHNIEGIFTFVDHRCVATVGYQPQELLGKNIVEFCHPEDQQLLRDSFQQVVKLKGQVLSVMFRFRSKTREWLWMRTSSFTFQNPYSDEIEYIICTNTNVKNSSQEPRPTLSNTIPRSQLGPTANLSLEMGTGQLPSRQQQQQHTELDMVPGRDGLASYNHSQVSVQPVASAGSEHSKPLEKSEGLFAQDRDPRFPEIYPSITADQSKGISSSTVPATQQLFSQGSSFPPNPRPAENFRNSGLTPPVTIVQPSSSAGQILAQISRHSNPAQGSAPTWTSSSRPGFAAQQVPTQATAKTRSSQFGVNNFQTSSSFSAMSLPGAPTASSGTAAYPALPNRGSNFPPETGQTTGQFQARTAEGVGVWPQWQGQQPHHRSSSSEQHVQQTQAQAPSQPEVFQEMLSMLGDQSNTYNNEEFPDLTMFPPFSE
Protocol: as §7, §4

[10] = target: T7, mutant mAhR I301V (Mus musculus, UniProt P30561, I301V/M324I); assay: AhR DNA binding (gel retardation) assay, I301V mAhR; assay type: biochemical
T7 construct: made in house; host or cells: in vitro transcription/translation, rabbit reticulocyte lysate
Protocol: as §7, §4

[11] = target: T8, mutant mAhR V307A (Mus musculus, UniProt P30561, M324I/V307A); assay: AhR DNA binding (gel retardation) assay, V307A mAhR; assay type: biochemical
T8 construct: made in house; host or cells: in vitro transcription/translation, rabbit reticulocyte lysate
Protocol: as §7, §4

[12] = target: T9, mutant mAhR I324M (Mus musculus, UniProt P30561); assay: AhR DNA binding (gel retardation) assay, I324M mAhR; assay type: biochemical
T9 construct: made in house; host or cells: in vitro transcription/translation, rabbit reticulocyte lysate
Protocol: as §7, §4

[13] = target: T10, mutant mAhR H326Y (Mus musculus, UniProt P30561, H326Y/M324I); assay: AhR DNA binding (gel retardation) assay, H326Y mAhR; assay type: biochemical
T10 construct: made in house; host or cells: in vitro transcription/translation, rabbit reticulocyte lysate
Protocol: as §7, §4

[14] = target: T11, mutant mAhR T343I (Mus musculus, UniProt P30561, M324I/T343I); assay: AhR DNA binding (gel retardation) assay, T343I mAhR; assay type: biochemical
T11 construct: made in house; host or cells: in vitro transcription/translation, rabbit reticulocyte lysate
T11 sequence (P30561 10-805 M324I/T343I limits assumed): as the sequence (P30561 10-805 L300I/M324I limits assumed) above, with I291L, T334I counted along it
T11 sequence (P53762 whole entry partner): as the sequence (P53762 whole entry partner) above
Protocol: as §7, §4

[15] = target: T12, mutant mAhR H351N (Mus musculus, UniProt P30561, H351N/M324I); assay: AhR DNA binding (gel retardation) assay, H351N mAhR; assay type: biochemical
T12 construct: made in house; host or cells: in vitro transcription/translation, rabbit reticulocyte lysate
Protocol: as §7, §4
(§8) In vitro synthesized mutant mAhRs were incubated in the presence of
(§9) 45 nM-10,000 nM) for 2 h and DNA binding analyzed by the gel retardation assay as described in
(§10) 46 Materials and Methods. Values represent the mean ± SD of nine individual replicate analyses and
(§11) 47 EC50 values determined by nonlinear regression (three-parameter) analysis and graphical depictions

[16] = target: T13, mutant mAhR S352N (Mus musculus, UniProt P30561, M324I/S352N); assay: AhR DNA binding (gel retardation) assay, S352N mAhR; assay type: biochemical
T13 construct: made in house; host or cells: in vitro transcription/translation, rabbit reticulocyte lysate
Protocol: as §7, §4, §8, §9, §10, §11

[17] = target: T14, mutant mAhR R355T (Mus musculus, UniProt P30561, M324I/R355T); assay: AhR DNA binding (gel retardation) assay, R355T mAhR; assay type: biochemical
T14 construct: made in house; host or cells: in vitro transcription/translation, rabbit reticulocyte lysate
Protocol: as §7, §4, §8, §9, §10, §11

[18] = target: T15, mutant mAhR A375V (Mus musculus, UniProt P30561, A375V/M324I); assay: biochemical
T15 construct: made in house; host or cells: in vitro transcription/translation, rabbit reticulocyte lysate
Protocol: as §7, §4

[19] = target: T16, mutant hAhR T355A (Homo sapiens, UniProt P35869, T355A); assay: AhR DNA binding (gel retardation) assay, T355A hAhR; assay type: biochemical
T16 construct: made in house; host or cells: in vitro transcription/translation, rabbit reticulocyte lysate
T16 sequence (P35869 11-848 T355A): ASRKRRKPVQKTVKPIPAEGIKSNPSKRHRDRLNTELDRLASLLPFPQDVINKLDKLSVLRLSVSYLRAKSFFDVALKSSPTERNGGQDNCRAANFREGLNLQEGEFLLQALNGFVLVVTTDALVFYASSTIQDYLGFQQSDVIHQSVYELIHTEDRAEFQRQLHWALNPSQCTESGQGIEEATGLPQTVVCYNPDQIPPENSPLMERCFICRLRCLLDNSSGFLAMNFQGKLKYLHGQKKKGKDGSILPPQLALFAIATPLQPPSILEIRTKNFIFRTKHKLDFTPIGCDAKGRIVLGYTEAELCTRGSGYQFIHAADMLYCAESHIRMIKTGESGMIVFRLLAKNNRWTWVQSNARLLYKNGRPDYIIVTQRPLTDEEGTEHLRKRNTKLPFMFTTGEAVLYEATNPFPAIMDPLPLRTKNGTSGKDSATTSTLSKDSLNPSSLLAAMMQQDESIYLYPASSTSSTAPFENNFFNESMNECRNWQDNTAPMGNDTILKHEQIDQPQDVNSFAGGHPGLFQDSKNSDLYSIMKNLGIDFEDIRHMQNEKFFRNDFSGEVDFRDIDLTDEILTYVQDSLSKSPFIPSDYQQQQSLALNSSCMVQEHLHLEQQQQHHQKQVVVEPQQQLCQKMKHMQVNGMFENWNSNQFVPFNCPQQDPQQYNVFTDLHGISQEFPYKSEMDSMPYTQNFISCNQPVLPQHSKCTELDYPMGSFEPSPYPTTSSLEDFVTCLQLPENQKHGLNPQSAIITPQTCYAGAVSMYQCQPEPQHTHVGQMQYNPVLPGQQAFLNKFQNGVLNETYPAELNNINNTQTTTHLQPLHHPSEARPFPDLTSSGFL
T16 sequence (P27540 whole entry partner): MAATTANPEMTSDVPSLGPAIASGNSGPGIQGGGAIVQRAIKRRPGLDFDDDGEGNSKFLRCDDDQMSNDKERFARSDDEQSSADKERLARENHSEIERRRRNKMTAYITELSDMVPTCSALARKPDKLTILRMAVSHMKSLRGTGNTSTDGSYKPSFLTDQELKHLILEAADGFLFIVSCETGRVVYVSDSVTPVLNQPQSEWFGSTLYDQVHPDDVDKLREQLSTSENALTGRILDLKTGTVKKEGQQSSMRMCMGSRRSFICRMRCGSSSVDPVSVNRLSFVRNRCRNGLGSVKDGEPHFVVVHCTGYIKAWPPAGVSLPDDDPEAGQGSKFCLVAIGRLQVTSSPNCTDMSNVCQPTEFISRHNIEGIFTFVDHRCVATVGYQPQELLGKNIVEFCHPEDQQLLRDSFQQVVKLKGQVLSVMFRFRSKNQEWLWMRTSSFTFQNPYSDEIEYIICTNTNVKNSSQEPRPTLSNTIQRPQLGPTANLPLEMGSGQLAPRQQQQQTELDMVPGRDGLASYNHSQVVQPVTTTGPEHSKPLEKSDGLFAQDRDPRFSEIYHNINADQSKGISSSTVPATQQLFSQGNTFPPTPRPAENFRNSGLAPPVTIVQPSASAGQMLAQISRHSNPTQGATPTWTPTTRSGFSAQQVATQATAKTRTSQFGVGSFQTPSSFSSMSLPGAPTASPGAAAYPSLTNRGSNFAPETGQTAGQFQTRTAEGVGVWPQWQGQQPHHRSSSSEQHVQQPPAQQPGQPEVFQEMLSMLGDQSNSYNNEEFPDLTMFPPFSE
Protocol: as §7, §4, §8, §9, §10, §11

[20] = target: T17, mutant hAhR V381A (Homo sapiens, UniProt P35869, V381A); assay: AhR DNA binding (gel retardation) assay, V381A hAhR; assay type: biochemical
T17 construct: made in house; host or cells: in vitro transcription/translation, rabbit reticulocyte lysate
Protocol: as §7, §4, §8, §9, §10, §11

[21] = target: T18, mutant hAhR Y332H (Homo sapiens, UniProt P35869, Y332H); assay: AhR DNA binding (gel retardation) assay, Y332H hAhR; assay type: biochemical
T18 construct: made in house; host or cells: in vitro transcription/translation, rabbit reticulocyte lysate
T18 sequence (P35869 11-848 Y332H): as the sequence (P35869 11-848 T355A) above, with Y322H, A345T counted along it
T18 sequence (P27540 whole entry partner): as the sequence (P27540 whole entry partner) above
Protocol: as §7, §4, §8, §9, §10, §11

[22] = system: T19, wild-type mAhR; assay: Transient transfection luciferase reporter assay in COS-1 cells, wild-type mAhR; assay type: cell-based, mouse; conditions: COS-1 cells cotransfected with wild-type mAhR; TCDD 10 nM, IR 1 µM, 18–20 h
T19 construct: contains a full-length mAhR cDNA in which the mouse PASB LBD was replaced; expressed in transfected cells; host or cells: COS-1
Protocol: as §5, §6

[23] = system: mAhR A375V; conditions: A375V versus high-affinity mAhR ref 27, 28; cited from earlier work
[24] = system: mAhR A375V; conditions: A375V versus high-affinity mAhR ref 27, 28; cited from earlier work; remark: listed apart in the source
[25] = target: T20, mutant mAhR A349T (Mus musculus, UniProt P30561, A349T/M324I); assay: biochemical; parameters: made in house; host or cells: in vitro transcription/translation, rabbit reticulocyte lysate
Protocol: as §7, §4

[26] = target: T21, mAhR (Mus musculus, UniProt P30561, M324I); assay: biochemical; parameters: made in house; host or cells: in vitro transcription/translation, rabbit reticulocyte lysate (Promega TNT)
Protocol: (§12) (A) The amount of inducible protein-DNA complex at each chemical concentration was quantitated and values normalized to the amount of complex formed with a maximal activating concentration of TCDD (20 nM). […] Values represent the mean ± SD of nine individual replicate analyses.
as §7, §4

[27] = target: T4, hAhR; assay: biochemical; parameters: only occur within the full length hAhR and not in the mAhR-hAhRLBD chimera; made in house; host or cells: in vitro transcription/translation, rabbit reticulocyte lysate
Protocol: as §12, §7, §4

[28] = target: T21, mAhR; parameters: host or cells: rabbit reticulocyte lysate, coupled transcription/translation; conditions: in vitro synthesized AhRs, specific binding
Protocol: (§1) [^3H]TCDD specific binding was determined by subtracting the amount of [^3H]TCDD bound to unprogrammed lysate (nonspecific binding) from the total amount of [^3H]TCDD binding to lysate containing in vitro expressed AhR.
Target sequence in this assay (P30561 10-805 M324I limits assumed): as the sequence (P30561 10-805 L300I/M324I limits assumed) above, with I291L counted along it

[29] = target: T20, mutant mAhR A349T; parameters: host or cells: rabbit reticulocyte lysate, coupled transcription/translation; conditions: specific binding
Protocol: as §1
Target sequence in this assay (P30561 10-805 M324I/A349T limits assumed): as the sequence (P30561 10-805 L300I/M324I limits assumed) above, with I291L, A340T counted along it

[30] = mouse H1L6.1c3 hepatoma cells, 4 h, mean ± SD of nine analyses, read-out: EC50 to stimulate luciferase reporter gene expression, Mouse

## COC(=O)c1csc(C(=O)c2c[nH]c3ccccc23)n1 [ITE, 2-(1H-Indol-3-ylcarbonyl)-4-thiazolecarboxylic acid methyl ester]
[1]; [30]
  EC50 at 4 h: 22.3 ± 3.53 nM
[2]
  EC50: 184 ± 42.1 nM

## O=C1Nc2ccccc2/C1=C1/Nc2ccccc2C1=O [IR, indirubin]
[1]; mouse
  EC50: 15.6 ± 3.52 nM
[3]
  induction of luciferase activity, IR versus TCDD: significantly more efficacious inducer than TCDD
  maximal induction compared with wild-type mAhR: significantly increased above that of wild-type mAhR
[4]
  induction of luciferase activity, IR versus TCDD: significantly more efficacious inducer than TCDD
[5]
  induction of luciferase activity, IR versus TCDD: significantly more efficacious inducer than TCDD
[6]
  greater potency than TCDD as inducer of AhR-dependent gene expression: 10 fold
[7]
  less potent than TCDD as inducer of AhR-dependent gene expression: ~ 10 fold
[2]; human HG2L6.1c1 cells
  more potent than TCDD, reporter gene induction: ~ 7 fold

## Clc1cc2c(cc1Cl)Oc1cc(Cl)c(Cl)cc1O2 [TCDD, 2,3,7,8-tetrachlorodibenzo-p-dioxin]
[1]; mouse
  EC50 at 4 h: 0.027 ± 0.01 nM
[8]
  EC50: 2.29 ± 0.12 nM
[9]
  EC50: 1.42 ± 0.61 nM
[10]
  EC50: 2.09 ± 0.01 nM
[11]
  EC50: 4.25 ± 0.12 nM
[12]
  EC50: 2.92 ± 0.14 nM
[13]
  EC50: 0.62 ± 0.52 nM
[14]
  EC50: 1.79 ± 0.12 nM
[15]
  EC50: 0.73 ± 0.04 nM
[16]
  EC50: 4.34 ± 0.26 nM
[17]
  EC50: 0.94 ± 0.06 nM
[18]
  EC50: 5.25 ± 0.56 nM
[19]
  EC50: 2.32 ± 0.82 nM
[20]
  EC50: 2.99 ± 0.65 nM
[21]
  EC50: 0.59 ± 0.6 nM
[22]
  induction of luciferase activity, TCDD versus IR: comparable to IR
[3]
  maximal induction compared with wild-type mAhR: significantly repressed compared to wild-type mAhR
[23]
  lower affinity of the mAhR after mutation A375V: ~ 10 fold
[24]
  lower activation potency of the mAhR after mutation A375V: ~ 10 fold
[25]
  EC50: 3.86 ± 1.06 nM
[2]
  EC50: 0.26 ± 0.07 nM
[26]
  EC50: 2.48 ± 0.54 nM
[27]
  EC50: 2.46 ± 0.9 nM

## Clc1cc2oc3cc(Cl)c(Cl)cc3c2cc1Cl [TCDF, 2,3,7,8-tetrachlorodibenzofuran]
[1]; [30]
  EC50: 1.25 ± 0.65 nM
[2]
  EC50: 4.1 ± 0.79 nM

## Clc1cc2c(cc1Cl)Oc1cc(Cl)c(Cl)cc1O2 [[^3H]TCDD]
[28]
  more [3H]TCDD bound to wild-type mAhR than to the mAhR-hAhRLBD chimera: ~ 10%
[29]
  [3H]TCDD binding to A349T mutant mAhR compared with wild-type mAhR: not significantly different from that of the wild-type mAhR

## O=Cc1c2[nH]c3ccccc3c2cc2[nH]c3ccccc3c12 [FICZ, 6-formylindolo[3,2-b]carbazole]
[1]; [30]
  EC50: 3.71 ± 0.85 nM

## O=c1cc(-c2ccccc2)oc2ccc3ccccc3c12 [BNF, β-naphthoflavone]
[1]; [30]
  EC50: 1.84 ± 1.14 nM
[2]; human HG2L6.1c1 cells
  maximal level of reporter gene induction: maximal induction was not observed

## Cc1ccc2cc3c(ccc4ccccc43)c3c2c1CC3 [3-MC, 3-Methylcholanthrene]
[1]; [30]
  EC50: 1.49 ± 0.01 nM
[2]
  EC50: 14.6 ± 3.51 nM
[2]; human HG2L6.1c1 cells
  maximal level of reporter gene induction: maximal induction was not observed
